Source: patent publication US9572786B2, “Use of capsiate or dihydrocapsidate” (Catholic University Industry Academy Cooperation Foundation, priority 2007, dated 2017)

Experiments:
IL-8 = assay: UV-induced pro-inflammatory cytokine mRNA, RT-PCR: IL-8; assay type: cell-based, human; conditions: HaCaT cells; 10, 25, 50 μM; UV 100 J/m^2; 4 hours
Experimental: (§1) 1×10^6 HaCaT cells were placed on a 100 mm Petri dish and cultured for 24 hours in DMEM containing 10% FBS. Subsequently, the cells were cultured for 24 hours in DMEM containing 1% FBS until starvation. Then, after treating with capsiate at different concentrations (10 μM, 25 μM, 50 μM) for 30 minutes, followed by washing 3 times with PBS, UV was irradiated at an intensity of 100 J/m^2 to induce the production of cytokines. Immediately after the UV irradiation, the cells were washed again with PBS and further cultured for 4 hours in DMEM containing 1% FBS, which was treated with capsiate at the same concentration as in the pre-treatment.
Then, the degree of mRNA expression for IL-6, IL-8 and TNF-α induced mainly in the skin by the UV irradiation was evaluated by RT-PCR in order to measure the inhibition effect against the pro-inflammatory cytokines.
RNAs were extracted from the cells of each test group using Trizol (Invitrogen, USA) and used as template for PCR (PTC-225 Peltier thermal cycler, MJ Research, USA) to prepare cDNAs for each test group. Using the resultant cDNAs as template, the degree of mRNA expression for IL-6, IL-8 and TNF-α was measured by RT-PCR (Roter Gene 6000 series, Corbett Research, Australia) using commercial IL-6, IL-8 and TNF-α primers. […]

MMP-9 = assay: Zymography of secreted MMP-9 after UV; assay type: cell-based, human; conditions: HaCaT culture medium; 10, 25, 50 μM; UV 100 J/m^2; 36 hours
Experimental: Zymography was carried out in order to investigate the decrease of expression and activity of MMP-2 and MMP-9 in protein level.
as §1, with “5×10^5 HaCaT” for “1×10^6 HaCaT”, “a 60” for “a 100”, “100 J/m^2.” for “100 J/m^2 to induce the production of cytokines.”, “for 36” for “for 4”, “pre-treatment. After collecting the culture medium, the activity of MMP-2 and MMP-9 proteins secreted from the cells into the medium was measured. To this end, the mediums obtained from the same number of cells were concentrated to the same volume, and the temperature was maintained at 4° C. in order to avoid the effect on the protein activity.” for “pre-treatment.”
Thus prepared sample was subjected to electrophoresis at 4° C. using 7.5% acrylamide gel containing gelatin but without sodium dodecyl sulfate (SDS). […]

p38 = assay: MAPK signaling after UV, Western blotting: p38; assay type: cell-based, human; conditions: HaCaT cells; 10, 25, 50 μM; 30 minutes after UV irradiation
Experimental: Western blotting was performed in the same manner as in Example 2-1 in order to identify the factor that affects the COX-2 expression regulated by capsiate, except for treating the cells with capsiate at different concentrations (10 μM, 25 μM and 50 μM) prior to UV irradiation, and using rabbit anti-ERK antibody, rabbit anti-p-ERK antibody, rabbit anti-p38 antibody, rabbit anti-p-p38 antibody, rabbit anti-JNK antibody and rabbit anti-p-JNK antibody (cell signaling), and anti-rabbit IgG-HRP conjugation antibody (Zymed) as the secondary antibody, 30 minutes after UV irradiation.

Sprague dawley (SD) rats = assay: Retinal vascular permeability in streptozotocin induced diabetic retinopathy; assay type: in vivo, rat; conditions: intravitreally injected 1-week after streptozotocin, observed at 3 weeks with dextran FITC
Experimental: Diabetes are induced by performing intraperitoneal injection of 60 mg/kg of streptozotocin (Sigma, St Louis, Mo., USA) into 8-week-old male Sprague dawley (SD) rats (250 g). 3 days later, serum glucose level was measured and rats having serum glucose level of […] and more are selected and used in experiments. Capsiate or capsaicin was intravitreally injected 1-week after the injection of streptozotocin, respectively. 3 weeks after the injection of streptozotocin, 0.5 ml of dextran FITC (25 mg/ml, MW 40K, Sigma, St Louis, Mo., USA) was injected through tail vein of tested rats to imaging retinal vascular pattern. Retinal tissues of the rats are isolated and observed by fluorescent microscopy (Olympus, Tokyo, Japan). The increase of retinal vascular permeability is observed in nonproliferative diabetic retinopathy, proliferative diabetic retinopathy and diabetic macular edema and result from cracks in vascular vessel due to breakdown of blood-retinal barrier (BRB).

IL-2 = assay: Secretion of IL-2 by T cells, ELISA; assay type: cell-based, C57/BL6 mouse; conditions: mouse spleen T cells of Example 14-1; vs control group
From the text: In order to investigate the effect of capsiate on activation of T cells, the production of IL-2 by the T cells the proliferation of which was induced in Example 14-1 was compared with the non-capsiate-treated control group. IL-2 is a T cell proliferation factor secreted from stimulated T cells and acts as a cytokine affecting the proliferation of T helper cells, cytotoxic T (TC) cells and natural killer (NK) cells, activation of T cells, proliferation of B cells, and production of antibody.
Specifically, the degree of IL-2 production was measured by ELISA. IL-2 recognition antibody was attached on a 96-well plate. Next day, after suppressing non-specific recognition using blocking buffer (PBS containing 5% BSA), cultured T cells were added to the plate and incubated at room temperature for 4 hours. Subsequently, after incubating using biotinylated IL-2 secondary antibody (Becton Dikinson, USA), absorbance (540 nm) was measured using an ELISA reader using biotin-recognizing enzyme antibody (streptavidine-conjugated HRP, Becton Dikinson, USA), while varying the substrate.

Ki67 = Ki67 expression in mouse skin, immunohistochemical staining; assay type: in vivo; conditions: mouse skin tissue of Example 5
Experimental: In order to investigate the effect of capsiate on various intracellular angiogenesis-related expression factors, the inhibition effect of capsiate on angiogenesis factors induced by UV was evaluated using the mouse tissue of Example 5.
Mouse skin tissue obtained by skin biopsy was immersed in OCT compound (Sakura Finetechnical Co. Ltd, Japan) and slowly frozen in liquid nitrogen. Thus prepared tissue was sliced with a thickness of 7 μm and fixed on a slide using acetone. The tissue was washed with distilled water and PBS and, after blocking for 1 hour using 10% normal goat serum, incubated at 4° C. for at least 16 hours using ki67 antibody (1:100, Neomarker, USA). After washing 3 times with PBS, the tissue was treated with Alexa 488-conjugated secondary antibody (Invitrogen, USA) for 30 minutes and then washed 3 times. The tissue was mounted and observed under a fluorescence microscope (Carl Zeiss, USA).

Compound: COc1cc(COC(=O)CCCC/C=C/C(C)C)ccc1O [capsiate]
- expression of IL-8 (mRNA) increased by UV irradiation (IL-8): significantly decreases
- expression and activity of MMP-9 (zymography) (MMP-9): inhibited expression and activity
- p38 (phosphorylation) (p38): no particular change
- increment of retinal vascular permeability (Sprague dawley (SD) rats): inhibited
- IL-2 production by T cells (IL-2): significantly decreased
- expression of Ki67 increased by UV (Ki67): significantly inhibited
